According to patent US20260297129A1, “PEPTIDES AS SELECTIVE IL-23 RECEPTOR INHIBITORS” (SANOFI, priority 2023, published 2026):
Values after ≈ are worked out from the molar mass of the structure shown. Where two headings read alike, the source gives them in different places. Numbered stars: 1 amine (or outer) side, 2 acyl side, 3 side chain; on linkers, the order of the positions; unused ones are H or OH. Bridge positions count the residues as written; N and C are the ends. Square brackets hold non-standard residues; d marks the D form. Peptide text beside a SMILES is read from it. * marks the point of attachment. Lys(Me,(CH2)4NMe(CH2)4CO) = CN(CCCCC(=O)[*:3])CCCCN(C)CCCC[C@H](N[*:1])C(=O)[*:2]; X3 = Cc1cccc2c(C[C@H](N[*:1])C(=O)[*:2])cn(C)c12; Trp(7-Me) = Cc1cccc2c(C[C@H](N)C(=O)O)c[nH]c12; NH(2-(3-pyridyl)ethyl) = c1cncc(CCN*)c1; 2Nal = N[C@@H](Cc1ccc2ccccc2c1)C(=O)O; 3Pal = N[C@@H](Cc1cccnc1)C(=O)O; Aun = NCCCCCCCCCCC(=O)O; Thp = NC1(C(=O)O)CCOCC1; Me2NCH2CH2 = CN(C)CC*; Aib = CC(C)(N)C(=O)O; Sar = CNCC(=O)O

Experiments:
[1] = tested on: IL-23 induced STAT3 signaling (IL-23 receptor) in HEK-Blue IL-23 cells; experiment: Inhibition of IL-23 induced STAT3 signaling in HEK-Blue IL-23 cells, SEAP reporter (Table 9); assay type: cell-based; settings: human IL23 0.25 ng/ml, overnight, read-out: Inhibition of IL-23 induced pSTAT3 (IC50 nM)
From the text: HEK-Blue™ IL-23 cells (INVIVOGEN) are designed for the detection of bioactive human (hIL-23) and murine IL-23 (mIL-23) by monitoring the activation of the STAT3 pathway. Binding of IL-23 to its receptor on the surface of HEK-Blue™ IL-23 cells triggers a signaling cascade leading to the activation of STAT3 and the subsequent production of secreted embryonic alkaline phosphatase (SEAP). This can be readily assessed using QUANTI-Blue™ Solution, a SEAP detection reagent.
HEK-Blue™ IL-23 cells were cultured as described by INVIVOGEN.
On the first day of assay 10 μL of the HEK-BLUE IL23 cell suspension (final concentration: 10,000 cells/well) and 10 μl of serially diluted peptides solutions were dispensed into a 384-well assay plate. After pre-incubation of the reaction mixtures at 37° C./5% CO2/95% humidity for 60 minutes, 10 μl of the humanIL23 cytokine (final concentration: 0.25 ng/ml) was added to each well for the STAT3 signaling activation. The plate was incubated overnight at 37° C./5% CO2/95% humidity.
On the second day 20 μl per well of QUANTI-BLUE detection solution (prepared according to the manufacture instruction) was dispensed into a new 384-well plate and followed by the transfer of 5 μl supernatant of the overnight incubated cell/sample mixtures. After incubation of 45 min at room temperature signals were measured with PHERASTAR (BMG) at OD 620-655 nm.
Dose response data were fitted with XLfit.

[2] = Protease stability in simulated gastric fluids (FaSSGF) (Table 7); assay type: in vitro ADME; settings: fassgf with pepsin, 60 min, 37° C., read-out: Remaining percentage of peptide compound, FaSSGF 60 (min)
Procedure: (§1) Studies were carried out in simulated intestinal fluid (SIF) and simulated gastric fluid (SGF) to evaluate gastric stability of the peptide compounds disclosed herein.
For clarification, the term “Pepsin-SGF” refers to a solution of simulated gastric fluid containing pepsin whereas “SGF media” refers to a solution of simulated gastric fluid without pepsin. Pepsin-SGF was prepared by dissolving 320 mg Pepsin (Merck Millipore) in 100 mL SGF media concentrate (PROSENSE).
(§2) Peptide compounds were first dissolved at 1 mM stock concentration in 0.01 HCl (+/−10% of DMSO) and were than diluted further with water to a stock concentration of 20 μM. Final peptide concentration in the incubation was 1 μM.
(§3) To 76 μL of the Pepsin-SGF buffer, 4 μL of the 20 μM peptide stock solution was added and incubated at 37° C. At each timepoint (0, 60, 120 and 240 minutes) the reaction was quenched with addition of 80 μL Ethanol (0,1% HCOOH). The samples were centrifuged for 20 minutes and an aliquot of the supernatant 100 μL were transferred to a LoBind-MTP plate and analyzed by LCMS/MS. The peak area response was calculated at each time point for each test compound. As internal reference, the peak area response of the same test compound at T0 was calculated. The percentage remaining at each timepoint was calculated based on the peak area response ratio of the test compound at T0. Time 0 was set to 100%, and all later timepoints were calculated relative to time 0.
as §3, with “(0.1%” for “(0,1%”

[3] = Protease stability in simulated intestinal fluids (FaSSIF) (Table 7); assay type: in vitro ADME; settings: fassif with pancreatin, 37° C.; for remaining at 1 h, 1 µM: 60 min, read-out: Remaining percentage of peptide compound, FaSSIF 60 (min); for remaining at 2 h, 1 µM: 120 min, read-out: Remaining percentage of peptide compound, FaSSIF 120 (min); for remaining at 4 h, 1 µM: 240 min, read-out: Remaining percentage of peptide compound, FaSSIF 240 (min)
Procedure: as §1
Similarly, the term “Pancreatin-SIF” refers to a solution of simulated intestinal fluid containing pancreatin whereas “SIF-media” refers to a solution of simulated intestinal fluid without pancreatin. Pancreatin-SIF was prepared by dissolving 1 mg Pancreatin (MP Biomedicals) in 10 mL SIF media concentrate (PROSENSE).
as §2
as §3, with “(0.1%” for “(0,1%”

[4] = Solubility of peptide compounds in buffer formulations (Table 5); assay type: physicochemical; settings: target 1 mg/ml
Procedure: Prior to the solubility measurement of a peptide batch, its purity was determined through UHPLC/MS method A.
(§4) For solubility testing the target concentration was 1 mg pure compound/ml. Therefore, solutions from solid samples were prepared in a buffer system at a concentration of 1 mg/mL compound. The solid samples were obtained by drying down aliquots of a freshly prepared dimethyl sulfoxide stock solution using a THERMO SPEEDVAC vacuum centrifuge. The dry down time was 3 hours.
The following buffer systems were applied: • Solubility buffer system A) 50 mM HCl pH 1.2 • Solubility buffer system B) 50 mM phosphate buffer pH 6.5 • Solubility buffer system C) 50 mM phosphate buffer pH 7.4 • UHPLC-UV was performed using analytical method A after 2 hours of gentle agitation from the filtered (0.45 μm filter plates) solutions, which were obtained by 10 mins of centrifugation forced filtration at 1500 RCF (relative centrifugal acceleration).
The solubility was determined by the comparison of the UV peak area of 2 μL-injections of a buffered sample diluted 1:10 with a standard curve of a dimethyl sulfoxide reference sample of known concentration. The different extinction coefficients were taken into account for the calculation.

[5] = Chemical stability (relative purity loss) of peptide compounds in buffer formulations (Table 6); assay type: physicochemical; settings: 2° C. and 37° C.
Procedure: Purity of a peptide batch was determined through UHPLC/MS method A prior to chemical stability measurement.
as §4, with “stability assessment,” for “solubility testing”, “0.5” for “1”, “acetonitrile” for “dimethyl sulfoxide”
The following buffer systems were applied: • Solubility buffer system A): 50 mM HCl pH 1.2+Acetonitrile (3:1). • Solubility buffer system B): 50 mM phosphate buffer pH 6.5+Acetonitrile (3:1). • Solubility buffer system C): 50 mM phosphate buffer pH 7.4+Acetonitrile (3:1). • Prepared solutions were stored for 24 hours at 2° C. and 37° C.
After this time course, the samples were centrifuged for 15 min at 2500 RCF to create a 1:5 dilution of the supernatant. Then 2 μl of the dilution were analyzed with UHPLC-UV applying method A.
The chemical stability was rated through the relative loss of purity calculated by the equation: […]

[6] = Buffer pH 1.1 (head; method: 50 mM HCl pH 1.2), 2 h agitation, read-out: Solubility, Buffer pH 1.1
[7] = aqueous buffer, 50 mM phosphate buffer pH 6.5, 2 h agitation, read-out: Solubility, Buffer pH 6.5
[8] = aqueous buffer, 50 mM phosphate buffer pH 7.4, 2 h agitation, read-out: Solubility, Buffer pH 7.4
[9] = 50 mM phosphate buffer pH 6.5 + acetonitrile (3:1), read-out: Chemical stability (relative purity loss), Buffer pH 6.5
[10] = 50 mM phosphate buffer pH 7.4 + acetonitrile (3:1), read-out: Chemical stability (relative purity loss), Buffer pH 7.4
[11] = 50 mm hcl + acetonitrile, Buffer pH 1.1 (head; method: 50 mM HCl pH 1.2 + acetonitrile 3:1), read-out: Chemical stability (relative purity loss), Buffer pH 1.1

CC(=O)NCCCC[C@@H]1NC(=O)[C@H](Cc2c[nH]c3c(C)cccc23)NC(=O)CCCCN(C)CCCCN(C)CCCC[C@@H](C(=O)NCC(=O)N[C@@H](Cc2cccnc2)C(=O)N(C)CC(N)=O)NC(=O)C(C)(C)NC(=O)[C@H](Cc2ccc3ccccc3c2)NC(=O)[C@H](Cc2ccc(OCCN(C)C)cc2)NC(=O)C2(CCOCC2)NC1=O [compound 29] ([Trp(7-Me)]K(Ac)[Thp]Y(Me2NCH2CH2)[2Nal][Aib][Lys(Me,(CH2)4NMe(CH2)4CO)]G[3Pal][Sar]-NH2; lactam N-7)
IC50 [1]: 2.75 nM
remaining at 1 h, 1 µM [2]: 99%
remaining at 1 h, 1 µM [3]: 96%
remaining at 2 h, 1 µM [3]: 95%
remaining at 4 h, 1 µM [3]: 90%
solubility at 2 h [4, 6]: ≥ 970 µg/mL
solubility at 2 h [4, 7]: 850 µg/mL (≈ 526 µM)
solubility at 2 h [4, 8]: 830 µg/mL (≈ 513 µM)
degraded at 24 h [5, 9]: 0%
degraded at 24 h [5, 10]: 0%
degraded at 24 h [5, 11]: 3%

Cc1cccc2c(C[C@@H]3NC(=O)CCCCN(C)CCCCN(C)CCCC[C@@H](C(=O)NCC(=O)NCCc4cccnc4)NC(=O)C(C)(C)NC(=O)[C@H](Cc4ccc5ccccc5c4)NC(=O)[C@H](Cc4ccc(OCCN(C)C)cc4)NC(=O)C4(CCOCC4)NC(=O)[C@H](CC(C)C)NC3=O)cn(C)c12 [compound 49] ([X3]L[Thp]Y(Me2NCH2CH2)[2Nal][Aib][Lys(Me,(CH2)4NMe(CH2)4CO)]G-{NH(2-(3-pyridyl)ethyl)}; lactam N-7)
IC50 [1]: 35.4 nM
remaining at 1 h, 1 µM [2]: 99%
remaining at 1 h, 1 µM [3]: 100%
remaining at 2 h, 1 µM [3]: 100%
remaining at 4 h, 1 µM [3]: 101%
solubility at 2 h [4, 6]: ≥ 900 µg/mL
solubility at 2 h [4, 7]: 250 µg/mL (≈ 171 µM)
solubility at 2 h [4, 8]: 40 µg/mL (≈ 27.4 µM)
degraded at 24 h [5, 9]: 0%
degraded at 24 h [5, 10]: 0%
degraded at 24 h [5, 11]: 0%

Cc1cccc2c(C[C@@H]3NC(=O)CCCCN(C)CCCCN(C)CCCC[C@@H](C(=O)NCC(=O)N[C@@H](Cc4cccnc4)C(=O)N(C)CC(N)=O)NC(=O)C(C)(C)NC(=O)[C@H](Cc4ccc5ccccc5c4)NC(=O)[C@H](Cc4ccc(OCCN(C)C)cc4)NC(=O)C4(CCOCC4)NC(=O)[C@H](CCC(N)=O)NC3=O)c[nH]c12 [compound 28] ([Trp(7-Me)]Q[Thp]Y(Me2NCH2CH2)[2Nal][Aib][Lys(Me,(CH2)4NMe(CH2)4CO)]G[3Pal][Sar]-NH2; lactam N-7)
IC50 [1]: 2.14 nM
remaining at 1 h, 1 µM [2]: 101%
remaining at 1 h, 1 µM [3]: 97%
remaining at 2 h, 1 µM [3]: 98%
remaining at 4 h, 1 µM [3]: 98%
solubility at 2 h [4, 6]: ≥ 1200 µg/mL
solubility at 2 h [4, 7]: ≥ 1060 µg/mL
solubility at 2 h [4, 8]: ≥ 990 µg/mL
degraded at 24 h [5, 9]: 0%
degraded at 24 h [5, 10]: 0%
degraded at 24 h [5, 11]: 6.7%

CC(=O)NCCCC[C@@H]1NC(=O)[C@H](Cc2c[nH]c3c(C)cccc23)NC(=O)CCCCCCCCCCNC(=O)CC[C@@H](C(=O)N[C@@H](CC(N)=O)C(=O)N[C@@H](Cc2cccnc2)C(=O)N(C)CC(N)=O)NC(=O)C(C)(C)NC(=O)[C@H](Cc2ccc3ccccc3c2)NC(=O)[C@H](Cc2ccc(OCCN(C)C)cc2)NC(=O)C2(CCOCC2)NC1=O [compound 16] ([Aun][Trp(7-Me)]K(Ac)[Thp]Y(Me2NCH2CH2)[2Nal][Aib]EN[3Pal][Sar]-NH2; lactam N-8)
IC50 [1]: 0.37 nM
remaining at 1 h, 1 µM [2]: 88%
remaining at 1 h, 1 µM [3]: 84%
remaining at 2 h, 1 µM [3]: 85%
remaining at 4 h, 1 µM [3]: 84%
solubility at 2 h [4, 6]: ≥ 950 µg/mL
solubility at 2 h [4, 7]: 760 µg/mL (≈ 458 µM)
solubility at 2 h [4, 8]: 260 µg/mL (≈ 157 µM)
degraded at 24 h [5, 9]: 0%
degraded at 24 h [5, 10]: 0.6%
degraded at 24 h [5, 11]: 3.8%
